melting point [°C]	SMILES
159 to 163	COCC(=O)Nc1ccc2ncnc(Nc3cccc(I)c3)c2c1
127 to 130	COc1c(O)c(C)c(CN2CCOCC2)c(O)c1OC
178	CC(C)(C)c1cc(CN2CCN(c3ccc([N+](=O)[O-])cc3)CC2)cc(C(C)(C)C)c1O
167 to 170	CCOC(=O)C1C(=O)NC(=O)C(C#N)C12CCCCC2 (centres undefined)
145 to 146	COc1ccc(CN2C(=O)[C@H]([C@@H](C)O)[C@H]2[C@@H]2COC(C)(C)O2)c(OC)c1
113	CCCCCCCCOC(=O)c1ccc(C(=O)O)cc1
> 275	COC(=O)Nc1nc(-c2ccccc2)c(-c2nc3ccccc3c(=O)n2-c2ccccc2Cl)s1
79 to 81	CCCCC1OC(=O)c2cc(NC3CCCC3)ccc21 (centres undefined)
243 to 244	CNc1ncc2cc(-c3c(Cl)cccc3Cl)c(=O)n(C)c2n1
138 to 141	Fc1ccc2sc(-c3ccc(CBr)cc3)nc2c1
253 to 254	CCOC(=O)c1c(C)nc2[nH]c3ccccc3c2c1N
144 to 145	CCOC(=O)C1=C(COCCNc2nc(N)n[nH]2)NC(C)=C(C(=O)OC)C1c1cccc(C(F)(F)F)c1Cl (centres undefined)
182	COC(=O)c1cc(C(=O)c2ncc3ccc(NC(=O)OC(C)(C)C)cn23)ccc1[N+](=O)[O-]
116 to 117	O=CC(=Cc1ccccc1OCc1ccc([N+](=O)[O-])cc1)C(C=O)=Cc1ccccc1OCc1ccc([N+](=O)[O-])cc1
162 to 163	Cc1ccc(C(=O)NC(NC(=O)Nc2cccnc2)C(Cl)(Cl)Cl)cc1 (centres undefined)
136 to 140	CCOC(=O)C1(NC(=O)CC)Cc2cccc3c2N(CCC3)C1=O (centres undefined)
131 to 132	CC(C)Cn1c(CN2C(=O)c3ccccc3C2=O)c(OCCCC(F)(F)F)c2cc(OCc3ccccc3)ccc2c1=O
210 to 212	CCCNC(=O)C(C)Cc1ccc2cccc(Cc3ccc(C(=O)NS(=O)(=O)c4ccccc4C)cc3OC)c2c1 (centres undefined)
103 to 104	C(=C\c1nc(COc2ccc(CCCCn3ccnc3)cc2)co1)/c1ccccc1
188 to 189	CCCCCCS(=O)(=O)c1ccccc1C1NC(=O)NC1=O (centres undefined)
116 to 117	Nc1cccn2nc(SCc3ccccc3)nc12
164 to 166	C=Cc1c(C(=O)O)nc(Cl)c(F)c1N
172 to 173	O=C(NC1CCCCC1)c1ccc2nonc2c1
252 to 254	O=c1c(Cc2ccccc2)c(O)c2cccc3c2n1C(c1ccccc1)C3 (centres undefined)

melting point [°C]	SMILES
148 to 150	CCOc1ccc(C2=NN(C3CCN(C(C)=O)CC3)C(=O)[C@@H]3CC=CC[C@H]23)cc1OCC
58 to 59.5	CCCCCCCCCCC#CC#CCCCCCCCCC(=O)OC(=O)CCCCCCCCC#CC#CCCCCCCCCCC
153 to 155	COc1ccc(CNc2nnc(N3CCC(CCO)CC3)c3ccc(Cl)cc23)cc1Cl
61 to 63	COc1ccccc1OCCCCCOc1ccc(C#N)cc1
122 to 124	CCc1cc(C(=O)Nc2ccccc2)on1
136 to 138	COc1ccccc1OCC1NC(C)(C)C(C(=O)O)S1 (centres undefined)
164 to 166	CCCc1nc2c(N)nc3ccccc3c2n1CCCCN(OC)C(=O)Nc1ccccc1
165	CSc1nc2ccnn2c(NCc2ccccc2)c1C#N
82 to 83	COc1cc(C(=O)OCC2(N(C)C)CCCc3sccc32)cc(OC)c1OC (centres undefined)
157 to 158	O=C1NCCN(c2ccc(Cc3ccc(Cl)cc3)c(Cl)c2)N1
148 to 150	COc1ccc(OCC(O)CN2CCC(N3CCNC3=O)CC2)cc1 (centres undefined)
146 to 148	Nc1ncnc2c1c(-c1ccc(OCc3ccccc3)cc1)cn2-c1cccc(OCCCl)c1
210 to 214	O=C1NC(N2CCN(c3ccncc3)CC2)c2ccccc21 (centres undefined)
69 to 70	COc1cc(C)c(C(=O)c2c(OC)cccc2C(F)(F)F)c(OC)c1OC
181 to 182	N#Cc1ccc(N(Cc2ccc(OCc3ccccc3)cc2)n2cnnc2)cc1-c1ccco1
41 to 43	O=C(O)CCCCCCC1=CCCC1=O
92 to 95	Cc1c(-c2ccc(Cl)cc2Cl)nc(C#N)n1S(=O)(=O)N(C)C
173	Nc1ccc(C(=O)CCCN2CCC(OC(=O)c3cc(Cl)c(N)c4c3OCC4)CC2)cc1N
125 to 127	O[C@H](COc1ccccc1C=Cc1nc2ccccc2s1)CN1CCC(c2ccc3ccccc3c2)CC1
137 to 139	CC(=O)Nc1ccc(S(=O)(=O)N2CCCCC2)cc1
190	Cc1cc2nc3ccccc3sc-2c(Br)c1=O
117 to 118	c1cncc(-c2c[nH]cn2)c1
153 to 154	O=C(Nc1ccc(Br)cn1)C1=C(O)c2ccccc2N(c2ccccc2)C1
127	COc1ccc(C2c3[nH]c4ccccc4c3CCN2C(=O)C=Cc2ccccc2)cc1 (centres undefined)

melting point [°C]	SMILES
204	NS(=O)(=O)c1cccc(-c2cccc(-c3nc(-c4ccc(C(F)(F)F)cc4)cc(C(F)F)n3)c2)c1
107 to 108	CC1OC(=O)c2c(O)cccc21 (centres undefined)
198 to 200	COc1ccc2c(C(F)(F)F)c(CC(=O)O)c(=O)oc2c1
135 to 136	CCOC(=O)Oc1ccc(/C(=C(/CC)c2ccccc2)c2ccc(/C=C/C(=O)O)cc2)cc1
187 to 192	COCCS(=O)(=O)c1ccccc1S(=O)(=O)NC(=O)Nc1nc(OC)cc(OC)n1
119 to 122	O=[N+]([O-])c1ccccc1Sc1ccncc1
96 to 97	CCOC(=O)C1CCC(Sc2ccc(F)cc2)C(=O)C1 (centres undefined)
198 to 201	C#CCN1CCC(N2C(=O)Nc3ccccc3C2c2ccccc2)CC1 (centres undefined)
92 to 96	Cc1cn(-c2ccc(N)c(C)c2)c(C)n1
175 to 177	CCOC(=O)c1cn(CC)c2c(F)c(C(=O)C=CN(C)C)c(F)cc2c1=O
116 to 118	CCCCCCCCCCCCCCOc1ccc(C(=O)Nc2cccc(CBr)c2)cc1
127 to 129	CCc1ccc(-c2ccc3c(c2)C=C(C(=O)Nc2ccc(CN(C)C4CCOCC4)cc2)CCN3C)cc1CC
122 to 125	COc1ccc2cc(N3CCC4(CCN(C)CC4)CC3)ccc2c1
156 to 158	CC(C)(OCc1cc2cc(Cl)ccc2n1S(=O)(=O)c1ccc2c(c1)OCCO2)C(=O)O
150 to 152	CN(C)CCOc1cc2c(Nc3ccc(Cl)cc3F)c(C#N)cnc2cn1
168 to 170	Cc1ccccc1Oc1cccc2c1OC(=O)C2N1C(=O)c2ccccc2C1=O (centres undefined)
107 to 108	N[C@H](C(=O)O)[C@H](S)c1ccccc1
239 to 242	CCOc1c(NCc2ccc(C#N)c(CC)c2)c(=O)c1=O
48 to 49	COCn1c(Cl)c(Cl)c(C#N)c1Cl
82 to 84	CC(C)N1C(=O)c2ccccc2C1CC(C)(C)O (centres undefined)
122 to 125	NCc1ccc(OCc2ccccc2)c(O)c1
112 to 114	Cc1oc(-c2ccccc2)nc1CCCc1ccc(CC(C(=O)O)c2cccnc2)cc1 (centres undefined)
105 to 108	Cc1oc(-c2ccco2)nc1CCOc1ccc(C#N)cc1
236 to 238	O=C(Nc1ccc(-n2nc(C(F)(F)F)cc2C2CC2)nc1)c1ccc2[nH]nnc2c1

melting point [°C]	SMILES
142 to 144	CC(C)N(N)C(=O)c1ccc(-c2ccc(Cl)cc2)o1
110	COCCCN1CC[C@@H](CNC(=O)c2cc(Cl)cc3c2OCCO3)[C@H](O)C1
> 200	c1ccc(CN2CC3(COc4cc5c(cc43)CCO5)c3c(-c4cccnc4)cccc32)nc1 (centres undefined)
77 to 78	O=S(=O)(c1ccc(Oc2ccc(Cl)c(Cl)c2)cc1)C(F)(F)F
253 to 254	O=C1CC2(C(=O)N1)C(=O)N(Cc1ccc(Cl)c(Cl)c1)c1ccc(F)cc12 (centres undefined)
102 to 104	O=C(NCCN1CCCCC1)Nc1ccc(-c2cnc(COCc3cc4ccccc4o3)o2)cc1
282 to 284	Oc1ccc2nc(-c3ccc(O)c(O)c3)oc2c1
202 to 205	OC(c1ccncc1)c1c[nH]c(-c2ccc(F)cc2)c1-c1ccncc1 (single isomer, unassigned; (+))
105 to 107	CCc1oc2cccc(O)c2c1C
72	CCSc1c(C=O)c(=O)n(C)c(=O)n1C
220 to 222	C=CCOC(=O)c1c(C)nc2[nH]c3ccccc3c2c1N
233 to 235	CC(O)c1cc2c(s1)S(=O)(=O)CCc1cc(=O)n(-c3ccc(Cl)cc3)nc1-2 (centres undefined)
135 to 137	Nc1ccccc1NC(=O)c1ccc(CNC(=O)c2[nH]c(-c3ccsc3)cc2-c2ccc(O)cc2)cc1
207 to 212	CC1CC(=O)NN=C1c1ccc2c(c1)N(S(C)(=O)=O)CCO2 (centres undefined)
149 to 151	COc1ccc2cc(C(=O)C(C)OS(C)(=O)=O)ccc2c1 (centres undefined)
106 to 112	COC(=O)c1cc(-c2ncco2)ccc1-c1ccccc1S(=O)(=O)Nc1onc(C)c1C
114 to 116	CN1CC(CCCl)Oc2cc3ccccc3nc2C1=S (centres undefined)
171 to 172	O=c1[nH]nnn1-c1ccc(OCc2ccc(F)cc2)cc1F
105 to 108	Cc1ccc2c([N+](=O)[O-])c(F)ccc2n1
136	Cc1cc(COc2c(Cl)cc(CCl)cc2Cl)oc(=O)c1
171 to 172	CC(=S)NC[C@H]1CN(c2ccc(N3CCC(=C(C)C#N)CC3)c(F)c2)C(=O)O1

SMILES	melting point [°C]
CN1C(=O)C(NS(=O)(=O)CC23CCC(CC2=O)C3(C)C)N=C(c2ccccc2)c2ccccc21 (centres undefined)	204 to 206
N#CC1CN1C(=O)NS(=O)(=O)c1ccccc1 (centres undefined)	103 to 108
O=C(OCC1CC1)c1ncn2c1[C@@H]1CCN1C(=O)c1c(Br)cccc1-2	212 to 213
CCC1C(C)=NN=C(c2ccc(O)c(O)c2)c2cc(O)c(O)cc21 (centres undefined)	250 to 251
CNCCc1c(C)[nH]c2ccc(S(=O)(=O)c3ccccc3)cc12	165 to 166
O=C1c2c(Cl)cccc2-n2cnc(-c3nc(CN(CC4CC4)CC4CC4)no3)c2[C@@H]2CCN12	155 to 160

Reference: a melting point compilation (Tetko et al.; mined from patent text by program, amines drawn as free bases though some values may be those of a salt)
